Experimental findings from patent US9707267B2, “Beta-turn peptidomimetic cyclic compounds for treating dry eye” (Mimetogen Pharmaceuticals, Inc., priority 2008, dated 2017) are described below.

The test system of assay [1] is scopolamine induced dry eye model. The assay can be described thus: Scopolamine induced dry eye model, tear fluorescein clearance (Example 3). The class given is in vivo, rat. The settings on record: single topical instillation of 1% on day eight; measured day thirteen. The procedure: Dry eye was induced using scopolamine (Sigma-Aldrich, St. Louis, Mo.), which was continuously and systemically delivered to the animals via an osmotic pump (2ML4 Alzet®; CedarLane, Burlington, Ontario) filled with scopolamine and implanted subcutaneously in the mid dorsal area between the scapulae. The wound was closed with 2-3 wound clips. After the surgery and again the next day, the animals were subcutaneously injected with Carprofen (0.5 mg/100 g) a non-steroidal anti-inflammatory drug and potent, long-acting analgesic in rodents. Animals were anaesthetized before the surgical pump implantation and before all clinical endpoint testing in an Isofluorane 99.9% USP (Abraxis Bioscience, Richmond Hill, Ontario) chamber. […]
Tear fluorescein clearance was evaluated as described for humans (Afonso, A A. et al., “Correlation of Tear Fluorescein Clearance and Schirmer Test Scores with Ocular Irritation Symptoms,” Ophthalmology 106:803-810 (1999), the entire content of which is incorporated herein by reference) and modified for rats (Chen, W. et al., “Keratoconjunctivitis Sicca Modifies Epithelial Stem Cell Proliferation Kinetics in Conjunctiva,” Cornea 26:1101-1106 (2007), the entire content of which is incorporated herein by reference). […] The length of cotton wetting in mm determined the volume of the collected tear fluid. […]

For assay [2], the system named is Conjunctival goblet cells. The assay can be described thus: Conjunctival goblet cell proliferation, WST-8 assay (Example 1). The format is cell-based, rat. The settings on record: NGF 1 nM (FIG. 4), 24 hours. The procedure:
Cells derived from the explants were grown in RPMI 1640 supplemented with 10% fetal bovine serum (FBS) and penicillin (100 U/mL)/streptomycin (100 μg/mL) at 37° C. in a humidified 5% CO2-atmosphere for seventy-two hours. Contaminating nongoblet cells were removed by scraping them from the plate. During this time, goblet cells migrated from the pieces and began to proliferate. After one week, the goblet cells were trypsinized and plated in twenty-four well culture plates with RPMI-1640 media supplemented with 10% FBS.
Conjunctival goblet cells were grown to subconfluence in 24-well culture plates and then serum deprived for twenty-four hours. […] CGC proliferation was determined with a colorimetric nonradioactive, WST-8 proliferation assay that measures the number of cells. This procedure employs the 2-(2-methoxy-4-nitrophenyl)-3-(4-nitrophenyl)-5-(2,4-disulfophenyl)-2H-tetrazolium, monosodium salt (WST-8), which is cleaved by viable, growing mitochondria to form a dark blue formazan product that is detected by a fluorescence ELISA reader (Bio-Tek, Winooski, Vt.) at 460 nm.
Data for CGC glycoconjugate secretion and proliferation were expressed as the increase (x-fold) above basal value, which was standardized to 1.0. For example, for the 0.3 μM (micromolar), 1 μM and 10 μM doses, the CGC glycoconjugate secretion and proliferation were expressed as test compound over untreated cells. […]
On the technique in general: Tetrazolium dyes change colour on reduction, which living cells bring about.

As for `NCCCC[C@@H]1NC(=O)[C@H](CCC(=O)O)NC(=O)c2cc([N+](=O)[O-])ccc2OCCC(C(=O)NCC(=O)O)NC1=O` (some centres unmarked) [Compound D3], the “aqueous tear turnover, fluorescein clearance (in words)” value in assay [1] is listed as “no effect on aqueous tear turnover”.

“NGF: nerve growth factor (recombinant human), positive control”: the CGC proliferation in assay [2] is reported as 1.6±0.3 fold above basal.
